According to the Bradley open melting point set (2014):
Values joined by “and” are separate entries in the source; they are usually repeats but may differ in a detail not shown here. Identical values can stand only once. Counter-ions that a name gives are not always drawn.

melting point	Structure (SMILES)
262 °C	C[C@@H]1C[C@H]2[C@@H]3CCC4=CC(=O)C=C[C@]4(C)[C@@]3(F)[C@@H](O)C[C@]2(C)[C@@]1(O)C(=O)CO [Dexamethasone]
133 °C	O=C(O)CCCCCCCCC(=O)O [sebacic acid]
129 °C	O=C1C=CC(=O)N1c1ccc(Br)cc1 [N-(4-bromophenyl)maleimide]
41 °C	COc1cc(Cl)cc(Cl)c1 [3,5-dichloroanisole]
95 °C	Nc1cccc(CO)c1 [m-amino_benzyl_alcohol]
71 °C	N#Cc1cc([N+](=O)[O-])ccc1F [2-fluoro-5-nitrobenzonitrile]
-1 °C	Brc1cccc2ccccc12 [1-bromonaphthalene]
-102 °C	CCCSCCC [di-n-propyl sulfide]
94 °C	O=[N+]([O-])c1ccc(CO)cc1 [4-nitrobenzyl alcohol]
147 °C	COc1ccc(OC)c(S(N)(=O)=O)c1 [2,5-dimethoxybenzenesulfonamide]
149 °C	O=C(CCCN1CCC(O)(c2ccc(Cl)cc2)CC1)c1ccc(F)cc1 [haloperidol]
286 °C	c1cc2ccc1CCc1ccc(cc1)CC2 [[2.2]paracyclophane]
58 °C	Nc1ccccc1I [o-iodoaniline]
136 °C	O=Cc1ccc(O)cc1O [2,4-Dihydroxybenzaldehyde]
86 °C	c1ccc(Cc2ccc(-c3ccccc3)cc2)cc1 [4-benzylbiphenyl]
115 °C	CC(C)(C)C1=CC(=O)C(=O)C(C(C)(C)C)=C1 [3,5-di-tert-butyl-o-benzoquinone]
126 °C	COc1ccc(C(=O)c2ccccc2Cl)cc1OC [methanone, (2-chlorophenyl)(3,4-dimethoxyphenyl)-]
-49 °C	CCCCCCCCS [1-octanethiol]
20 °C	O=C=N/c1cccc(N=C=O)c1C [1,3-Diisocyanato-2-methylbenzene]
157 °C	Oc1ccc(Cl)cc1-c1cc[nH]n1 [4-chloro-2-(1h-pyrazol-3-yl)phenol]
94 °C	CC(C(=O)O)c1cccc(C(=O)c2ccccc2)c1 (centres undefined) [Ketoprofen]
84 °C	N#CCc1ccccc1[N+](=O)[O-] [o-nitrophenylacetonitrile]
188 °C	O=C(/C=C/c1ccccc1[N+](=O)[O-])c1cccc(O)c1 [(2E)-1-(3-Hydroxyphenyl)-3-(2-nitrophenyl)-2-propen-1-one]
142 °C	CCOC1OC(C(N)=O)=CCC1Br (centres undefined) [3-bromo-2-ethoxy-3,4-dihydro-2H-pyran-6-carboxamidato]
165 °C	COC(=O)C1C(c2ccccc2)C(C#N)=C(C(SC)SC)C1(O)c1ccccc1 (centres undefined)
90.5 °C	c1ccc(Cc2ccccc2)cc1 [diphenylmethane]
130 °C	N#Cc1cc(Cl)ccc1Cl [2,5-dichlorobenzonitrile]
100 °C	O=C(O)C(CBr)CBr [3-bromo-2-(bromomethyl)propionic acid]
-169 °C	C=C(F)Cl [1-Chloro-1-fluoroethene]

More lines, now with the values behind:

Structure (SMILES)	melting point
CCOS(=O)(=O)OCC [Diethyl sulfate]	-24 °C
Cc1ccccc1OP(=O)(Oc1ccccc1C)Oc1ccccc1C [Tris(2-methylphenyl) phosphate]	-33 °C
COc1ccc(C(C)C)cc1B(O)O [5-isopropyl-2-methoxybenzeneboronic acid]	86 °C
Cc1ccccc1N1CCNCC1 [1-(o-tolyl)piperazine]	47 °C
CC(=O)CO [hydroxyacetone]	-17 °C
C1CC1 [cyclopropane]	-127 °C
CC(=O)Oc1ccccc1C=O [o-acetoxybenzaldehyde]	38 °C
c1ccc(Oc2cccc(-c3nnn[nH]3)c2)cc1 [5-(3-phenoxyphenyl)-1h-tetrazole]	153 °C
CCCCNC(=O)C(c1cc(OC)cc(OC)c1)N(Cc1ccccc1)C(=O)C#Cc1ccccc1 (centres undefined) [Ugi product 173G (UC)]	138 °C
COC1=C(OC)C(=O)C(C/C=C(\C)CC/C=C(\C)CC/C=C(\C)CC/C=C(\C)CC/C=C(\C)CC/C=C(\C)CC/C=C(\C)CC/C=C(\C)CC/C=C(\C)CCC=C(C)C)=C(C)C1=O	49 °C
CSC(SC)=C(C#N)C(N)=O [2-Cyano-3,3-bis(methylsulfanyl)acrylamide]	102 °C
Nc1ccc(Cl)cc1[N+](=O)[O-] [4-chloro-2-nitroaniline]	118 °C
C/C=C/CC [(2E)-Pent-2-ene]	-140 °C
Nc1c(Br)cc(Br)c(Cl)c1Cl [4,6-dibromo-2,3-dichloroaniline]	97 °C
O=C1Cc2ccccc2C(=O)O1 [Homophthalic acid anhydride]	143 °C
N#CCC(N)=O [cyanoacetamide]	120 °C
Cc1ccccc1[N+](=O)[O-] [1-Methyl-2-nitrobenzene]	-10 °C
COc1cccc(C(N)=O)c1 [3-methoxybenzamide]	133 °C
CCCCCCCCCCCCCCCCCC(=O)O [stearic acid]	71 °C
CCC1(c2ccccc2)C(=O)NC(=O)N(C)C1=O (centres undefined) [mephobarbital]	176 °C

Structure (SMILES)	melting point
CCCCCCCCCCCCBr [1-bromododecane]	-10 °C
COC(=O)c1ccc(N(C)C)cc1 [methyl 4-dimethylaminobenzoate]	100 °C
O=C=Nc1cccc([N+](=O)[O-])c1 [3-nitrophenyl isocyanate]	52 °C
CCCC[C@@H](NC(=O)OCc1ccccc1)C(=O)O [N-benzyloxycarbonyl-D-norleucine]	57 °C
COc1ccc2c(C(=O)c3ccc(Cl)cc3)c(C)n(CC(=O)O)c2c1 [clometacin]	242 °C
C(=C\c1ccccc1)/c1ccccc1 [trans-stilbene]	125 °C and 124 °C
Clc1cccc(Cl)c1Cl [1,2,3-trichlorobenzene]	55 °C and 53 °C (2×)
CCCOC1CCC2C3CCC4=CC(=O)CCC4(C)C3CCC12C (centres undefined) [17-propoxyandrost-4-en-3-one]	118 °C
CC1=NN(c2ccccc2)C(=O)/C1=C/c1ccccc1O	154 °C
Cc1ccccc1-c1ccccc1P(C(C)(C)C)C(C)(C)C [2-(di-tert-butylphosphino)-2'-methylbiphenyl]	92 °C
Br [Hydrogen bromide]	-87 °C and -86 °C
CCC1C2=C(OC(=O)C1(C)C)c1ccc(OC)cc1CC2 (centres undefined)	143 °C
O=c1ccc2cc([N+](=O)[O-])ccc2o1 [6-nitrocoumarin]	188 °C
CC(C)CCC[C@@H](C)[C@H]1CC[C@H]2[C@@H]3CC[C@H]4CC(=O)CC[C@]4(C)[C@H]3CC[C@]12C [5alpha-cholestan-3-one]	130 °C
C=CC1(C(C)CCC)C(=O)NC(=O)NC1=O (centres undefined) [vinylbital]	90 °C
O=C(O)CCl [chloroacetic acid]	62 °C
O=C1OC(c2ccccc2)=NC1=Cc1ccco1 [2-Oxazolin-5-one, 4-furfurylidene-2-phenyl-]	159 °C
CC(C)CCCC(C)(C)O [2,6-dimethyl-2-heptanol]	-10 °C
O=C(O)COc1ccc(Cl)cc1Cl [(2,4-Dichlorophenoxy)acetic acid]	138 °C
Cc1ccc(C)c(/C=C/C(=O)O)c1 [2,5-dimethylcinnamic acid]	130 °C
